# Patent EP0196005A1, “Pyridazinones, their preparation and pharmaceutical compositions containing them” (Dr. Karl Thomae GmbH, priority 1985, dated 1986)
# Assays:
# Thrombozytenaggregation = assay: Platelet aggregation according to Born and Cross (collagen-induced, photometric); format: cell-based, gesunder Versuchspersonen; conditions: collagen-induced aggregation in platelet-rich plasma of healthy subjects
# Method: 1. Bestimmung der Thrombozytenaggregation nach Bom und Cross (J. Physiol. 170, 397 (1964)):
# Die Thrombozytenaggregation wurde in plättchenreichem Plasma gesunder Versuchspersonen gemessen. Hierbei wurde der Verlauf der Abnahme der optischen Dichte nach Zugabe von handelsüblichem Collagen der Firma Sigma, St. Louis/USA, welches 1 mg Collagen-Fibrillen pro ml enthält, photometrisch gemessen und registriert. Aus dem Neigungswinkel der Dichtekurve wurde auf die Aggregationsgeschwindigkeit (Vmax) geschlossen. Der Punkt der Kurve, bei dem die größte Lichtdurchlässigkeit vorlag, diente zur Berechnung der "optical density" (O.D.). Zur maximalen Aggregationsauslösung werden ca. 0,01 ml der Collagenlösung zu 1 ml plättchenreichem Plasma gegeben.
# narkotisierten Katze = assay: Blood pressure lowering and positive inotropic effect in the anaesthetised cat; format: in vivo; conditions: 0,1 mg/kg i.v., mean of 3 cats; for Wirkungsdauer (Halbwerts-zeit): anaesthetised cats; for Blutdruck änderung in mmHg: second value of the printed pair (presumably diastolic), pentobarbital-anaesthetised cats
# Method: 2. Bestimmung der blutdrucksenkenden und positiv inotropen Wirkung an der narkotisierten Katze:
# Die Untersuchungen wurden an Katzen durchgeführt, die mit Pentobarbital-Natrium (40 mg/kg i.p.) narkotisiert waren. Die Tiere atmeten spontan. Der arterielle Blutdruck wurde in der Aorta abdominalis mit einem Statham-Druckwandler (P 23 Dc) gemessen. Für die Erfassung der positiv inotropen Wirkung wurde mit einem Kathetertipmanometer (Milliar PC-350 A) der Druck in der linken Herzkammer gemessen. Daraus wurde der Kontraktilitätsparameter dp/dtmax mittels eines Analogdifferenzierers gewonnen. Die zu untersuchende Substanz wurden in eine Vena femoralis injiziert Als Lösungsmittel diente Polydiol 200. Die Substanz wurde an 3 Katzen geprüft, Dosis 0,1 i.v..
Structure (SMILES),EC50 (Thrombozytenaggregation) [nM],Wirkungsdauer (Halbwerts-zeit) (narkotisierten Katze) [Minuten],Blutdruck änderung in mmHg (narkotisierten Katze) [mmHg]
"CC1CC(=O)NN=C1c1ccc2oc(-n3ccnc3)nc2c1 (stereo not shown) [A, 5-Methyl-6-[2-(1-imidazolyl)-benzoxazol-5-yl]-4,5-dihydro-3(2H)-pyridazinon]",31,25,-45
"CC1CC(=O)NN=C1c1ccc2nc(N3CCNCC3)oc2c1 (stereo not shown) [B, 5-Methyl-6-[2-(1-piperazinyl)-benzoxazol-6-yl]-4,5-dihydro-3(2H)-pyridazinon]",,12,-43
"CCOC(=O)N1CCN(c2nc3ccc(C4=NNC(=O)CC4C)cc3o2)CC1 (stereo not shown) [C, 5-Methyl-6-[2-(4-carbäthoxy-1-piperazinyl)-benzoxazol-6-yl]-4,5-dihydro-3(2H)-pyridazinon]",,12,-50
CC1CC(=O)NN=C1c1ccc2[nH]c(N3CCCC3)nc2c1 (stereo not shown) [D],,13,-17
"CC1CC(=O)NN=C1c1ccc2[nH]c(N3CCSCC3)nc2c1 (stereo not shown) [E, 5-Methyl-6-[2-(4-thiomorpholino)-benzimidazol-5-yl]-4,5-dihydro-3(2H)-pyridazinon]",,10,-12
"CC1CC(=O)NN=C1c1ccc2nc(-n3ccnc3)[nH]c2c1 (stereo not shown) [F, 5-Methyl-6-[2-(1-imidazolyl)-benzimidazol-5-yl]-4,5-dihydro-3(2H)-pyridazinon]",,8,-20
